From paper PMC8766756, “Insights on Cancer Cell Inhibition, Subcellular Activities, and Kinase Profile of Phenylacetamides Pending 1H-Imidazol-5-One Variants” (Frontiers in Pharmacology, 2022)
Read-outs that look alike come from different tables or passages of the source.

Key:
[1] = system: HCT116 colon cancer cell line; test: MTT antiproliferative assay; assay type: cell-based; details: Homo sapiens, HCT-116
Experimental: The compounds were screened for their anticancer activities against a variety of cancer cell lines. The cytotoxic effect of the compounds was evaluated using the sulforhodamine B (SRB) cytotoxicity assay for breast cancer line (MCF7) and prostate cancer cell line (PC3) ([Vichai and Kirtikara, 2006]; [Rana et al., 2021]) and 3-(4,5-dimethylthiazol-2-yl)-2,5-diphenyl-2H-tetrazolium bromide (MTT) assay for the colon cancer (HCT116) cell lines ([El-Huneidi et al., 2020]). The CellTiter-Blue® cell viability assay was performed on the various leukemia cell lines, HL60, NB4, and KG1a cells ([Akter et al., 2019]). The IC50 values are illustrated in Table 1.
MCF7 (breast), PC3 (prostate), and HCT116 (colon) cancer cell lines were obtained from ATCC, Manassas, VA, USA. Cells were grown in Roswell Park Memorial Institute-1640 (RPMI-1640) medium (Thermo Fisher Scientific, Inc., Waltham, MA, USA), supplemented with 10% heat inactivated fetal bovine serum (FBS), 50 units/mL of penicillin, and […] of streptomycin and maintained at 37°C in a humidified atmosphere containing 5% CO2. The cells were maintained as “monolayer culture” by serial subculturing.
The test compounds were evaluated for antiproliferative activity using the MTT viability assay against the HCT116 cell line. The cells were seeded in triplicate in 96-well plates at a density of 10 × 10^3 cells/mL in a total volume of 200 µL per well. 0.1% of DMSO was used as a vehicle control. Each well was treated with 2 µL of test compound, which had been preprepared as stock solutions in ethanol to furnish the concentration range of the study, 0.1–50 μM, and re-incubated for a further 72 h at 37°C in a humidified atmosphere containing 5% CO2. The culture medium was then removed, and the cells were washed with 100 µL of PBS, and 100 µL of MTT was added, to reach a final concentration of 1 mg/ml of MTT. The cells were incubated for 3 h in darkness at 37°C. After removal of MTT solution, solubilization was initiated through the addition of […] of DMSO, and the cells were maintained at room temperature in darkness for 20 min to ensure thorough color diffusion before reading the absorbance with a microplate reader at 570 nm. The results were expressed as percentage viability relative to vehicle control (100%). The dose–response curves were plotted, and the IC50 values (concentration of drug resulting in 50% reduction in cell survival) were obtained using the commercial software package Prism (GraphPad® Software, Inc., La Jolla, CA, USA). All the experiments were repeated in at least three independent experiments.

[2] = Stability in human liver microsomes; assay type: in vitro ADME; details: 37°C, t1/2
Experimental: The clearance of KIM-161 in MLM or HLM was determined at 37°C as previously described ([Yang et al., 2007]). Both MLM and HLM were obtained from Merck KGaA (Darmstadt, Germany), Cat. No. M9441 (MLM) and M0317 (HLM). The assays were conducted in triplicate in 96-well deep polypropylene plates. KIM-161 was incubated with pooled liver microsomes from male CD-1 mice (Life Technologies, Grand Island, NY), tetrasodium NADPH and magnesium chloride for 60 min at 37°C with gentle shaking. At five time points, the reaction mixture aliquots were transferred to 96-shallow well stop plates on ice containing acetonitrile with 0.1 µM propafenone. […] The standard curves for the test compound were generated using five concentrations in triplicate that were processed as above but with zero incubation time. The stop plates were centrifuged at 2000g for 10 min, and then, the supernatant aliquots were transferred to a Waters Aquity® UPLC 700 µL 96-well sample plate with cap mat (Waters, Milford, MA). The amount of the compound remaining in the supernatant was quantified by LC/MS/MS using a Waters Xevo TQ MS (electrospray positive mode) coupled to a Waters Aquity® UPLC (BEH column, C18). Propafenone was used as the internal standard. GraphPad® Prism v.5.04 was used for nonlinear fitting of time course data to generate t1/2 values.

HL60 cells = test: Cell cycle analysis by flow cytometry; assay type: cell-based, human; details: HL60, 1 µM, 48 h, vs untreated control
Experimental: The cell cycle analysis of the HL60 cells after treatment was performed with 1 µM of KIM-161 by using flow cytometry.
The cells (3.5 × 10^5/well) were incubated with 1 µM 4c (KIM-161) at 37°C for 48 h. Subsequently, the cells were collected and washed twice with ice-cold PBS (1X). The washed cells were fixed on ice for 20 min using a fixation buffer containing paraformaldehyde. Hoechst 33342 (10 μg/ml; Thermo Fisher Scientific, Inc.) was used for staining. The cells were then incubated in the dark for 30 min on ice. A minimum total of 20,000 events were acquired using a BD FACSAria III flow cytometer. Flowlogic version 7.2.1 software (Inivai Technologies, Victoria, Australia) was used to obtain the percentages of cells in the G1, S, and G2/M phases in the singlet-gated population.

[3] = biological target: T1, human cytochrome P450 2C9 (Homo sapiens, UniProt P11712); test: Inhibition assay of human CYP450 enzymes; assay type: in vitro ADME; details: fluorescent substrate
T1 construct: purchased Fisher Scientific, Waltham, MA; host or cells: insect cells (Supersomes)
Experimental: (§1) KIM-161 was assessed for its ability to inhibit the three major human CYP450 enzymes: 3A4, 2D6, and 2C9. The assays were run in triplicate. The expressed enzymes in insect Supersomes (Fisher Scientific, Waltham, MA) were used to minimize nonspecific binding and membrane partitioning issues ([McMasters et al., 2007]). The 3A4 assay uses testosterone as a substrate, and the analysis was performed by LC/MS/MS on a Waters Xevo TQ instrument as described above, using positive electrospray ionization. The assay acceptance criterion was 20% for all standards and 25% for the LLOQ. The 2D6 and 2C9 assays use fluorescent substrates (3-[2-(N,N-diethylamino)ethyl]-7-methoxy-4-methylcoumarin for 2D6; 7-methoxy-4-(trifluromethyl)coumarin for 2C9) and were analyzed on an Envision plate reader. GraphPad® Prism v.5.04 was used for nonlinear fitting of data to generate IC50 values.

[4] = biological target: T2, human cytochrome P450 3A4 (Homo sapiens, UniProt P08684); test: Inhibition assay of human CYP450 enzymes; assay type: in vitro ADME; details: testosterone substrate
T2 construct: purchased Fisher Scientific, Waltham, MA; host or cells: insect cells (Supersomes)
Experimental: as §1

[5] = biological target: T3, human cytochrome P450 2D6 (Homo sapiens, UniProt P10635); test: Inhibition assay of human CYP450 enzymes; assay type: in vitro ADME; details: fluorescent substrate
T3 construct: purchased Fisher Scientific, Waltham, MA; host or cells: insect cells (Supersomes)
Experimental: as §1

T1 sequence (P11712 whole entry): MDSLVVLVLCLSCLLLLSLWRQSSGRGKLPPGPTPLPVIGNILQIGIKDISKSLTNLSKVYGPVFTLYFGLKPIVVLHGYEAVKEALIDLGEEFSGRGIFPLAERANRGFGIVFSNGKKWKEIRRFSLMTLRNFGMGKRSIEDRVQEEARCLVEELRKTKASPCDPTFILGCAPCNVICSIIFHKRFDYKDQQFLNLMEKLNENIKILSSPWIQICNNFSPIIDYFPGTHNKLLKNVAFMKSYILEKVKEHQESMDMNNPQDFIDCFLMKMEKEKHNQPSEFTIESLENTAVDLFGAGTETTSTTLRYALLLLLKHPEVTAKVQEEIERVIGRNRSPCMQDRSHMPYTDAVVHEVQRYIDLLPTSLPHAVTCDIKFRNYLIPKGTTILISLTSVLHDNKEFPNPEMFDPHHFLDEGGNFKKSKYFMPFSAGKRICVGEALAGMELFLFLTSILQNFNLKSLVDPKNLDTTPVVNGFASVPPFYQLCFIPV
T2 sequence (P08684 whole entry): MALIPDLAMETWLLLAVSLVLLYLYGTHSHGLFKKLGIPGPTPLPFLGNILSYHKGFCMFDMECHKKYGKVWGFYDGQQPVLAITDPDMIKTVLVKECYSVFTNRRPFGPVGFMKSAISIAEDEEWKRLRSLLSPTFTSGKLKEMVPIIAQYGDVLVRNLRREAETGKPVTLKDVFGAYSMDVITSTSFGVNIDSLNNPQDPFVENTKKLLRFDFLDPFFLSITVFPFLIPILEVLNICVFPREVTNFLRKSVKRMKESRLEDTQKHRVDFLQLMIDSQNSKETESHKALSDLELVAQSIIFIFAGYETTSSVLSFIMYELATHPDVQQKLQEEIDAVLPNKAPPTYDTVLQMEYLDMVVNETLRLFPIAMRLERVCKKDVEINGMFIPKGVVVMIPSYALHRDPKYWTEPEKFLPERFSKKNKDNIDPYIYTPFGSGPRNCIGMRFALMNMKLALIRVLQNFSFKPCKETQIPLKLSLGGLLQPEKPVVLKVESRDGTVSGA
T3 sequence (P10635 whole entry): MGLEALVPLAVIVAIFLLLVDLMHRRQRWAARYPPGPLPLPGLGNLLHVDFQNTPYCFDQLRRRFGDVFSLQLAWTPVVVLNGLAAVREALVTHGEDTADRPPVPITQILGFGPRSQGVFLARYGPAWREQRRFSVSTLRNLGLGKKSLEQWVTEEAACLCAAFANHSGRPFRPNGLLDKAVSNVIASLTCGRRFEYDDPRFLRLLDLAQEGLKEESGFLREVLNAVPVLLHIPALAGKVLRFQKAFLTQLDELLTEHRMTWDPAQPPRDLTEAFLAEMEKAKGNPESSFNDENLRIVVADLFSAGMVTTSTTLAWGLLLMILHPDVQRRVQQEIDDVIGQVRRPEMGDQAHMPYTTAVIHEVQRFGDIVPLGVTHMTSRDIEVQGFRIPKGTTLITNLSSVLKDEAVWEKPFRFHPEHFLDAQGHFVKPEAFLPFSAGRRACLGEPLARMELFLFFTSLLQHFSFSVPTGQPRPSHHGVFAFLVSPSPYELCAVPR

`COc1ccc(/C=C2\N=C(C)N(c3ccc(CC(=O)NCc4ccccc4)cc3)C2=O)cc1` [Compound 4c, (Z)-N-Benzyl-2-(4-(4-(4-methoxybenzylidene)-2-methyl-5-oxo-4,5-dihydro-1H-imidazol-1-yl)phenyl)acetamide] gave an IC50 ([1]; HCT116, MTT, 72 h, read-out: IC50 ± SEM HCT116) of 294 nM, an IC50 ([1]; HCT116 colon cancer, abstract, read-out: cytotoxic IC50 HCT116) of 294 nM and an HLM stability [2] of 22.9 min. The “Cell cycle distribution: G0/G1 phase” value (HL60 cells) was “decrease in the G0/G1 phase”, the “Cell cycle distribution: G2/M phase” value (HL60 cells) was “increased the population of cells in the G2/M phase” and the “Cell cycle distribution: PreG phase” value (HL60 cells) was “accumulate in PreG phase”. The “Cell cycle distribution: S phase” value (HL60 cells) was “no difference is seen in cell population in the S phase”, the IC50 [3] was ≥ 10000 nM and the IC50 [4] was ≥ 10000 nM. For the same compound, the IC50 [5] was ≥ 10000 nM.
